Usually LD50 stands for the dose at which mortality reaches 50%. Read a low LD50 as a more toxic substance.

Where two headings read alike, the source gives them in different places.

The values that follow come from patent US4399137A, “6-Imidazol-1-yl-3-hydrazino-pyridazines, their preparation and antihypertensive use” (BASF Aktiengesellschaft, priority 1979, dated 1983).

Data set [1] in a line: Acute toxicity (LD 50), intraperitoneal administration. The following applies: mouse, in vivo; for LD50 at 168 h: ip, mice, intraperitoneal, 50% of the animals died within 7 days. Type of data set: in vivo. The procedure: (§1) To determine the acute toxicity (LD 50), the substances were administered intraperitoneally to groups of 10 female NMRI mice (weighing 20-25 g each).
(§2) The LD 50 was computed (by Probit analysis) as the dose after which 50% of the animals died within 7 days.

The test system of data set [2] is mice. Described as above. The format is in vivo. The following applies: mice, intraperitoneal; dihydralazine = 1.00. The procedure: as §1, §2
Data set [3] has as its system spontaneously hypertonic rats. In words: Anti-hypertensive action on spontaneously hypertonic rats (SHR), oral administration. The format is in vivo, rat (Okamoto. The following applies: for ED20: Rattus norvegicus, dose which lowers systolic pressure by 20%, 2 hours after administration, read-out: Anti-hypertensive action ED 20%; for ED20 / Anti-hypertensive action R.E. (relative effectiveness): SHR, oral; for Anti-hypertensive action R.E. (relative effectiveness): dihydralazine = 1.00; for times as effective as dihydralazine: wake spontaneously hypertonic rats. The procedure: The anti-hypertensive action was determined on spontaneously hypertonic rats (Okamoto). The substances were administered orally to groups of from 4 to 8 male animals. Before, and 2 hours after, administration, the systolic blood pressure was measured on the tail of the rat by means of a piezoelectric crystal sensor. The ED 20 was determined, as the dose which lowers the systolic pressure by 20%, from the linear regression between the logarithm of the dose (mg/kg) and the relative lowering of blood pressure (Δ%), with due account taken of the values found with placebo-treated control animals.

Data set [4] has as its system narcotized rats. The data set can be described thus: Hypotensive action (blood pressure lowering) on narcotized rats, intravenous administration. Type of data set: in vivo, rat (Sprague Dawley). The following applies: for ED20: Rattus norvegicus, dose producing a 20% lowering of blood pressure, read-out: Hypotensive action ED 20%; for ED20 / Hypotensive action R.E. (relative effectiveness) / factor by which blood pressure-lowering doses are lower than the dihydralazine doses: narcotized rats; for ED20 / Hypotensive action R.E. (relative effectiveness): intravenous; for Hypotensive action R.E. (relative effectiveness): dihydralazine = 1.00; for blood pressure-lowering properties (in words): general statement, no specific model named; for factor by which blood pressure-lowering doses are lower than the dihydralazine doses: relative to dihydralazine. The procedure: The blood pressure was measured in the […]. The substance was administered into the jugular vein (using 1 ml/kg of an aqueous solution). The ED 20% was determined, as the dose producing a 20% lowering of blood pressure, from the linear regression between the logarithm of the dose (mg/kg) and the relative lowering of the blood pressure (Δ%).

Where [5] appears, read: ratio LD 50 / anti-hypertensive dose, read-out: toxic doses (LD 50) times as great as the anti-hypertensive doses.
Setting [6] is: LD 50 (mice, i.p.) relative to anti-hypertensive ED 20% (SHR, oral), read-out: Therapeutic range Q.

Compound `NNc1nnc(NN)c2ccccc12` [Dihydralazine, dihydralazine, reference compound] gave an LD50 at 168 h in data set [1] of 206 mg/kg. For the same compound, the selectivity ratio in data set [1] (setting [5]) stood at 30. The selectivity ratio in data set [1] (setting [6]) amounted to 30.1. The “Toxicity R.E.” value in data set [2] worked out at 1.00. For the same compound, in data set [3], the ED20 was found to be 6.85 mg/kg and the “Anti-hypertensive action R.E. (relative effectiveness)” value is reported as 1.00. In addition, in data set [4], the ED20 stood at 0.0854 mg/kg and the “Hypotensive action R.E. (relative effectiveness)” value is on record as 1.00.

In data set [1], `Cc1nccn1-c1ccc(NN)nn1` [Example 1 a, 3-Hydrazino-6-(2-methyl-imidazol-1-yl)-pyridazine] displayed an LD50 at 168 h of 193 mg/kg. Besides, the selectivity ratio in data set [1] (setting [6]) is 137. Also, the “Toxicity R.E.” value in data set [2] was determined as 1.06. Moreover, in data set [3], the ED20 amounted to 1.41 mg/kg, the “Anti-hypertensive action R.E. (relative effectiveness)” value worked out at 4.86 and the “times as effective as dihydralazine” value was 4.9. Also, in data set [4], the ED20 was found to be 0.031 mg/kg, the “blood pressure-lowering properties (in words)” value was “Particularly active”, the “Hypotensive action R.E. (relative effectiveness)” value came to 2.75 and the “factor by which blood pressure-lowering doses are lower than the dihydralazine doses” value came to 2.8.

Take `CCc1nccn1-c1ccc(NN)nn1` [Example 1 c, 3-Hydrazino-6-(2-ethyl-imidazol-1-yl)-pyridazine]: in data set [1], the LD50 at 168 h was determined as 156 mg/kg. In data set [1] (setting [6]), the selectivity ratio was 53.6. In addition, the “Toxicity R.E.” value in data set [2] is 1.32. For the same compound, in data set [3], the ED20 came to 2.91 mg/kg, the “Anti-hypertensive action R.E. (relative effectiveness)” value is recorded as 2.35 and the “times as effective as dihydralazine” value came out at 2.4. Moreover, in data set [4], the ED20 was determined as 0.0638 mg/kg, the “blood pressure-lowering properties (in words)” value was “Particularly active”, the “Hypotensive action R.E. (relative effectiveness)” value turned out to be 1.34 and the “factor by which blood pressure-lowering doses are lower than the dihydralazine doses” value was found to be 1.3.

`CC(C)=NNc1ccc(-n2ccnc2C)nn1` [Example 2 a, 3-(2-Isopropylidene-hydrazino)-6-(2-methyl-imidazol-1-yl)-pyridazine] showed an LD50 at 168 h in data set [1] of 98.6 mg/kg. Besides, the selectivity ratio in data set [1] (setting [5]) is 40. Moreover, in data set [1] (setting [6]), the selectivity ratio came out at 40.1. Besides, the “Toxicity R.E.” value in data set [2] came out at 2.09. Moreover, in data set [3], the ED20 was found to be 2.46 mg/kg and the “Anti-hypertensive action R.E. (relative effectiveness)” value is listed as 2.78. In data set [4], the ED20 stood at 0.0464 mg/kg, the “blood pressure-lowering properties (in words)” value is given as “Particularly active” and the “Hypotensive action R.E. (relative effectiveness)” value amounted to 1.84.

In data set [1], `CCc1nccn1-c1ccc(NN=C(C)C)nn1` [Example 2 b, 3-(2-Isopropylidene-hydrazino)-6-(2-ethyl-imidazol-1-yl)-pyridazine] had an LD50 at 168 h of 124 mg/kg. Further, the selectivity ratio in data set [1] (setting [6]) stood at 50.1. Further, in data set [2], the “Toxicity R.E.” value came out at 1.66. Further, in data set [3], the ED20 came out at 2.48 mg/kg and the “Anti-hypertensive action R.E. (relative effectiveness)” value came out at 2.76. Also, in data set [4], the ED20 is 0.0464 mg/kg, the “blood pressure-lowering properties (in words)” value is given as “Particularly active” and the “Hypotensive action R.E. (relative effectiveness)” value is 1.84.
